Patent publication US12617790B2, “Mitragynine analogs and uses thereof” (Memorial Sloan-Kettering Cancer Center, priority 2015, dated 2026)

What was measured:
[1] = test system: CD1 mice; assay: Reversal of tail flick antinociception by selective opioid antagonists, CD1 mice; assay type: in vivo, mouse; settings: VM1501 1.0 mg/kg sc, VM1502 1.5 mg/kg sc
[2] = molecular target: T1, KOR-1 (Mus musculus, UniProt P33534); assay: [35S]GTPγS functional assay, KOR-1 transfected cell membranes; assay type: biochemical
T1 construct: expressed in transfected cells; host or cells: CHO

[3] = test system: CD1 mice; assay: Radiant heat tail flick analgesia, icv, CD1 mice; assay type: in vivo, mouse; settings: ED50, cumulative dose-response, tail flick 15 min after icv dose
[4] = molecular target: T2, MOR-1 (Mus musculus, UniProt P42866); assay: Competition binding against 125I-IBNtxA in MOR-1/CHO membranes
T2 construct: expressed in transfected cells; host or cells: CHO

[5] = molecular target: T2, MOR-1; assay: [35S]GTPγS functional assay, MOR-1 transfected cell membranes; assay type: biochemical
[6] = test system: 129/Sv mice; assay: Tail flick antinociception icv in 129/Sv mice (wild type and Exon11 knockout); assay type: in vivo, mouse; settings: 15 min
[7] = test system: CD1 mice; assay: Respiratory depression assessment (MouseOx pulse oximeter breath rate)
[8] = test system: mice; assay: Gastrointestinal motility assay (charcoal meal transit); settings: 30 min
[9] = molecular target: T1, KOR-1; assay: Competition binding against 125I-IBNtxA in KOR-1/CHO membranes
[10] = molecular target: T3, DOR-1 (Mus musculus, UniProt P32300); assay: Competition binding against 125I-IBNtxA in DOR-1/CHO membranes
T3 construct: expressed in transfected cells; host or cells: CHO

[11] = test system: mice; assay: Antisense oligodeoxynucleotide downregulation, tail flick antinociception; assay type: in vivo, mouse; settings: antisense icv days 1, 3, 5, test day 6; VM1501 1.0 mg/kg sc, VM1502 1.5 mg/kg sc
[12] = test system: CD1 mice; assay: Radiant heat tail flick analgesia, sc, CD1 mice; assay type: in vivo; settings: Mus musculus, 0.25 h, ED50, cumulative dose-response, tail flick 15 min after sc dose
[13] = molecular target: T3, DOR-1; assay: [35S]GTPγS functional assay, DOR-1 transfected cell membranes; assay type: biochemical
[14] = test system: CD1 male mice; assay: Tail flick antinociception, oral by gavage, CD1 male mice; assay type: in vivo; settings: Mus musculus, orally by gavage
[15] = test system: mice; assay: Conditioned place preference / aversion; settings: VM1502 1.3 and 3.2 mg/kg/d, 2 days conditioning
[16] = test system: rats; assay: Tail flick analgesia, sc, rats; assay type: in vivo; settings: Rattus norvegicus, 0.25 h, rats (n=3), 15 mins, cumulative dosing
[17] = test system: mice; assay: Physical dependence, naloxone-precipitated jumping; settings: VM1502 2x daily 2x ED50, challenge on days 5, 22, 29; 15 min count
[18] = test system: CD1 male mice; assay: Tolerance study, chronic twice daily dosing, tail flick; settings: for ED50: Mus musculus, sc

Structure (SMILES)	antinociception after NTI (0.5 mg/kg sc) and norBNI (10 mg/kg sc) [1]	antinociception after β-FNA (40 mg/kg sc) [1]	IC50 [2] [nM]	Analgesia icv [3] [µg]	Ki [4] [nM]	EC50 [5] [nM]	Ki [9] [nM]	Ki [10] [nM]	analgesic response after antisense downregulation [11]	ED50 [12] [mg/kg]	further results
CC[C@@H]1CN2CC[C@@]3(O)C(=Nc4cccc(OC)c43)C2C[C@@H]1/C(=C\OC)C(=O)OC (stereo partly drawn) [VM1501, (E)-methyl-2-((2S,3S,7aS)-3-ethyl-7a-hydroxy-8-methoxy-1,2,3,4,6,7,7a,12b-octahydroindolo[2,3-a]quinolizin-2-yl)-3-methoxyacrylate]	insensitive to NTI and norBNI	antagonized by β-FNA	2520	0.06	37	53	132	91	diminished in MOR-1-downregulated mice	0.46	ED50 antinociception icv, Exon11 knockout ([6]; 129/Sv Exon11 knockout mice): 0.83 µg; ED50 antinociception icv, wild type ([6]; 129/Sv wild type mice): 0.022 µg; respiratory rate ([7]; FIG. 8C: VM1501 2.5 mg/kg sc (5x ED50), morphine 10 mg/kg, 50 min post-injection): did not depress respiratory rate; gastrointestinal transit ([8]; FIG. 8D: VM1501 0.5 and 1 mg/kg): did not lower transit significantly compared with saline
CC[C@@H]1CN2CC[C@]3(Nc4cccc(OC)c4C3=O)C2C[C@@H]1/C(=C\OC)C(=O)OC (stereo partly drawn) [VM1502, (E)-methyl 2-((1'S,6'S,7'S)-6′-ethyl-4-methoxy-3-oxo-3′,5′,6′,7′,8′,8a′-hexahydro-2′H-spiro[indoline-2,1′-indolizine]-7′-yl)-3-methoxyacrylate]	insensitive to NTI and norBNI	antagonized by β-FNA	31	0.38	0.8	1.7	24	3	only affected in MOR-1-downregulated mice	0.76	IC50 [13]: 61 nM; ED50 [14]: 7.5 mg/kg; respiratory rate ([7]; FIG. 12D, 2x antinociceptive ED50: VM1502 1.2 mg/kg sc, morphine 5 mg/kg): did not depress respiratory rate; respiratory rate ([7]; FIG. 12D, 5x antinociceptive ED50: VM1502 3 mg/kg sc, morphine 10 mg/kg): showed signs of respiratory depression albeit significantly less than the equianalgesic dose of morphine; respiratory rate ([7]; FIG. 14, 5x antinociceptive ED50: VM1502 3.75 mg/kg sc, VM1512 5.0 mg/kg sc, morphine 10 mg/kg): showed signs of respiratory depression albeit significantly less than the equianalgesic dose of morphine; conditioned place preference or aversion [15]: did not produce conditioned place preference or aversion; ED50 [16]: 1.4 mg/kg; gastrointestinal transit ([8]; FIG. 12C: VM1502 1.5 and 4 mg/kg): lowered transit significantly compared with saline (P<0.05) but less than morphine at both doses; physical dependence: number of jumps after naloxone (1 mg/kg) [17]: not significantly greater than that of mice treated with saline; ED50 ([18]; 0 h, read-out: analgesic ED50, naïve (day 0)): 0.63 mg/kg; ED50 ([18]; 120 h, read-out: analgesic ED50, day 5): 1.1 mg/kg; ED50 ([18]; 288 h, read-out: analgesic ED50, day 12): 1.8 mg/kg; ED50 ([18]; 528 h, read-out: analgesic ED50, day 22): 2 mg/kg; ED50 ([18]; 696 h, read-out: analgesic ED50, day 29): 4.5 mg/kg; onset of analgesic tolerance ([18]; dosed 2x daily with 2x antinociceptive ED50): very slow onset of tolerance compared with morphine
